Experimental data as given in ChEMBL document CHEMBL6153121, “Anti-Inflammatory Dimeric and Trimeric Flavonoids from the Roots ofPistacia weinmannifolia” (J Nat Prod, 2025).
The source made the active and inactive calls. The calls are words filed in the database; no cut-off is given here.

What was measured:
[1] = system: NCI-H292; experiment: Antiinflammatory activity against PMA-stimulated human NCI-H292 cells assessed as reduction in MUC5AC secretion at 1 uM incubated for 24 hrs by ELISA; assay type: functional, cell-based
[2] = system: NCI-H292; experiment: Antiinflammatory activity against PMA-stimulated human NCI-H292 cells assessed as reduction in IL-8 secretion at 1 uM incubated for 24 hrs by ELISA; assay type: functional, cell-based
[3] = system: NCI-H292; experiment: Cytotoxicity against human NCI-H292 cells assessed as redcution in cell viability at 0.25 to 1 uM incubated for 24 hrs in presence of PMA by CCK-8 assay; assay type: toxicity, cell-based; conditions: nci-h292, 24 h, dose 0.25-1 µM

**Q.** Which results are given for `O=C(/C=C/c1ccc(Oc2ccc(/C=C/C(=O)c3ccc(O)cc3O)cc2O)cc1)c1ccc(O)cc1O`?
**A.** Activity [1]: Active; Effectively Inhibited The Secretion; Activity [2]: Active; Effectively Inhibited The Secretion

**Q.** For `O=C(/C=C/c1ccc(O)cc1)c1ccc2c(c1O)[C@H](C(=O)c1ccc(O)cc1O)[C@@H](c1ccc(O)cc1)O2`, which Activity [1] is on record?
**A.** Active

**Q.** What about the Activity [2] of the same molecule?
**A.** Active

**Q.** For `O=C(/C=C/c1ccc(Oc2c(O)ccc(C(=O)/C=C/c3ccc(O)cc3)c2O)cc1)c1ccc(O)cc1`, which Activity [1] is on record?
**A.** Active

**Q.** What about the Activity [2] of the same molecule?
**A.** inactive

**Q.** How did the Activity [3] turn out when `O=C(/C=C/c1ccc(Oc2ccc([C@H]3Oc4cc(O)ccc4C(=O)[C@@H]3[C@@H]3C(=O)c4ccc(O)cc4O[C@H]3c3ccc(O)c(O)c3)cc2)cc1)c1ccc(O)cc1O` was run?
**A.** Toxic

**Q.** What does the source list for `O=C(/C=C/c1ccc(Oc2cc(C(=O)/C=C/c3ccc(O)cc3)c(O)cc2O)cc1)c1ccc(O)cc1O`?
**A.** Activity [1]: Active; Effectively Inhibited The Secretion; Activity [2]: Active; Effectively Inhibited The Secretion

**Q.** `O=C(/C=C/c1ccc(O)c(-c2cc(C(=O)/C=C/c3ccc(O)cc3)c(O)cc2O)c1)c1ccc(O)cc1O` was tested. Which Activity [1] did it give?
**A.** Active

**Q.** And the Activity [2]?
**A.** Active

**Q.** How did the Activity [1] turn out when `O=C(/C=C/c1ccc(Oc2ccc([C@@H]3[C@@H](C(=O)c4ccc(O)cc4O)[C@H](C(=O)c4ccc(O)cc4O)[C@H]3c3ccc(O)cc3)cc2O)cc1)c1ccc(O)cc1O` was run?
**A.** Active; Effectively Inhibited The Secretion

**Q.** What about the Activity [2] of the same molecule?
**A.** Active; Effectively Inhibited The Secretion

**Q.** For `O=C1C[C@@H](c2ccc(O)cc2)Oc2cc(Oc3ccc([C@@H]4[C@@H](C(=O)c5ccc(O)cc5O)[C@H](C(=O)c5ccc(O)cc5O)[C@H]4c4ccc(O)cc4)cc3O)ccc21`, which Activity [1] is on record?
**A.** Active

**Q.** And the Activity [2]?
**A.** Active
